Source: patent US8609836B2, “4-aryl-2-anilino-pyrimidines” (Janssen Pharmaceutica NV, priority 2008, dated 2013)

Experiments:
U87-MG = assay: Cellular proliferation assay (Alamar blue), U87-MG; type: cell-based; details: Homo sapiens, U-87 MG; 10% FCS; 72 hours with compound; Alamar blue 6 h; read-out: U87-MG (cellular proliferation assay, Table 4) (converted)
How it was run: (§1)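 Cells were seeded in medium with 10% FCS at 37° C, 5% CO2, left 24 h without compound, then exposed to compounds for 72 h. Viability was read with Alamar blue (resazurin 9 μg/ml, K-ferrocyanide and K-ferricyanide 90 μM each), 6 h for U87-MG, 4 h for HCT-116, 24 h for A2780 and MDA-MB-231.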

H1299 = assay: Cellular proliferation assay (Alamar blue), H1299; type: cell-based; details: Homo sapiens, NCI-H1299; 10% FCS; 72 hours with compound; Alamar blue 4 h
How it was run: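 This proliferation assay on NCI-H1299 cells used an initial 24-hour compound-free incubation after seeding, followed by 72 hours of compound treatment with 10% FCS serum at 37° C. and 5% (v/v) CO2. Viable cells were quantified by a 4 h Alamar blue incubation and fluorescent plate reading at 544 nm/590 nm, and effects were expressed relative to control cells.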

HCT-116 = assay: Cellular proliferation assay (Alamar blue), HCT-116; type: cell-based; details: Homo sapiens, 10% FCS, 72 hours with compound, Alamar blue 4 h
How it was run: as §1

PLK2 (h) = PLK2 (h) (Homo sapiens, UniProt Q9NYY3); assay: PLK2 human kinase inhibition, SPA; type: biochemical; details: read-out: PLK2 pIC50 (converted)
How it was run: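 SPA read on Leadseeker: PLK2 (30 μg/ml) with 2 μM biotinylated peptide, 0.1 μM ATP plus 2 nM [γ-33P]ATP in 50 mM Hepes pH 8.0, 2 mM MnCl2, 1 mM DTT. Reaction ran 20 min at room temperature, then EDTA stop and streptavidin PVT beads.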

CDK4/CyclinD1 (h) = CDK4/CyclinD1 (h) (Homo sapiens, UniProt P11802); assay: CDK4/CyclinD1 human kinase inhibition, SPA with GST-pRb substrate; type: biochemical; details: read-out: CDK4 pIC50 (converted)
How it was run: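 Human CDK4/CyclinD1 (2.5 μg/ml) was incubated with 40 μg/ml GST-pRb and 2 nM [γ-33P]ATP in 50 mM Hepes pH 7.5, 8 mM NaF, 20 mM MgCl2, 1 mM DTT for 60 min at room temperature. EDTA stop with glutathione SPA beads; phosphorylation read by scintillation counting.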

A2780 = assay: Cellular proliferation assay (Alamar blue), A2780; type: cell-based; details: Homo sapiens, 10% FCS, 72 hours with compound, Alamar blue 24 h, read-out: A2780 (cellular proliferation assay, Table 4) (converted)
How it was run: as §1

PLK1 T210D (h) = PLK1 T210D (h) (Homo sapiens, UniProt P53350, T210D); assay: PLK1 human kinase inhibition, SPA; type: biochemical; details: read-out: PLK1 pIC50 (converted)
How it was run: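 Radiometric SPA with PLK1 T210D (0.125 ng/ml) in 50 mM Hepes pH 8.0, 2 mM MnCl2, 1 mM DTT, 2 μM biotinylated peptide, 0.1 μM ATP plus 2 nM [γ-33P]ATP. 40 min at room temperature, EDTA stop. Phosphorylated substrate captured on streptavidin PVT beads, scintillation imaged.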

CDK1/CyclinB (h) = CDK1/CyclinB (h) (Homo sapiens, UniProt P06493); assay: CDK1/CyclinB human kinase inhibition, Invitrogen's FRET assay (Z'lyte); type: biochemical; details: read-out: CDK1 pIC50 (converted)
How it was run: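 Z'lyte FRET assay: human CDK1/CyclinB (0.2 μg/ml) with 2 μM Ser/Thr peptide 12 and 10 μM ATP in 50 mM Hepes pH 7.5, MgCl2, EGTA, Brij-35, 60 min at room temperature. Protease development 60 min, then emission ratio 460/538 nm read with excitation at 390 nm.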

AuroraB (h) = AuroraB (h) (Homo sapiens, UniProt Q96GD4); assay: Aurora-B human kinase inhibition, SPA; type: biochemical; details: read-out: AuroraB pIC50 (converted)
How it was run: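 SPA with biotinylated peptide (3 μM) in 60 mM Hepes pH 7.5, Mg/Mn 3 mM each, 0.5 μM ATP plus [γ-33P]ATP, AuroraB at 0.5 μg/ml. The reaction runs 60 min at room temperature and is stopped with EDTA and streptavidin PVT beads. 33P-substrate is read by scintillation imaging.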

Chain of AuroraB (h) (Q96GD4 whole entry): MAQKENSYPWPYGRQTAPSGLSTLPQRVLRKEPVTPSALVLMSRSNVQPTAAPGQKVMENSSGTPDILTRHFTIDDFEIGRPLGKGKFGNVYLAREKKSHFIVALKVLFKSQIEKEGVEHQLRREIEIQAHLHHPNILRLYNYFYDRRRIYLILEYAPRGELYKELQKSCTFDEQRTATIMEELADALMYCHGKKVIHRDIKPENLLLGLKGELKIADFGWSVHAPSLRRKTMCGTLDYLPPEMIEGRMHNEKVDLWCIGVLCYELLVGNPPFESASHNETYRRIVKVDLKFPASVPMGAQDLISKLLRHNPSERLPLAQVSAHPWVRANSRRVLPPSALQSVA
Chain of PLK2 (h) (Q9NYY3 whole entry): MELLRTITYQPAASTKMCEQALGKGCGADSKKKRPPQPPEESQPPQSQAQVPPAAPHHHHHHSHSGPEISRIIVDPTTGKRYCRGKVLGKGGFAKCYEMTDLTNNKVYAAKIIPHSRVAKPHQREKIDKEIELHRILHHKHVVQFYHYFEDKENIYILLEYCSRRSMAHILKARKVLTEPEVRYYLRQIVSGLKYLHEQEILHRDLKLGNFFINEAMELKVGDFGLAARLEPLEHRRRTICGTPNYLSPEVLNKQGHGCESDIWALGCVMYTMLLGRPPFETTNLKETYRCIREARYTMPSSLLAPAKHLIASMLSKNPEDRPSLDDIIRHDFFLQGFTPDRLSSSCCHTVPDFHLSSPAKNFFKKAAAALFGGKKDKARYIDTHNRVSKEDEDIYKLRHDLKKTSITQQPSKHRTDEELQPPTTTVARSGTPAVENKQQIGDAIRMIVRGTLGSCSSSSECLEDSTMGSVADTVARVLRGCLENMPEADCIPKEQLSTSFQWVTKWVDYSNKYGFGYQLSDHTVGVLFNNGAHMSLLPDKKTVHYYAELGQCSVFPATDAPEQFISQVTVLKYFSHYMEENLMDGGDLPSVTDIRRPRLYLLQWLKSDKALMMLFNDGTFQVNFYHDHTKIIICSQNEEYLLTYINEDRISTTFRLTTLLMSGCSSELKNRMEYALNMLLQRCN
Chain of CDK1/CyclinB (h) (P06493 whole entry): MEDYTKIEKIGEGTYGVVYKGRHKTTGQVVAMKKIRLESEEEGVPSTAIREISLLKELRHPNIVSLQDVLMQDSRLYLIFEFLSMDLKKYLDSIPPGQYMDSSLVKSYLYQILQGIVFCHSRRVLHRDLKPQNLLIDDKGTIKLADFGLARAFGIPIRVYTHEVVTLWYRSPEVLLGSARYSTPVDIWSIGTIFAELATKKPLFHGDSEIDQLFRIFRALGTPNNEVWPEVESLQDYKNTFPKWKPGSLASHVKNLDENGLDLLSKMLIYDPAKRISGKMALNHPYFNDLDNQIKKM
Chain of CDK1/CyclinB (h) (P14635 whole entry partner): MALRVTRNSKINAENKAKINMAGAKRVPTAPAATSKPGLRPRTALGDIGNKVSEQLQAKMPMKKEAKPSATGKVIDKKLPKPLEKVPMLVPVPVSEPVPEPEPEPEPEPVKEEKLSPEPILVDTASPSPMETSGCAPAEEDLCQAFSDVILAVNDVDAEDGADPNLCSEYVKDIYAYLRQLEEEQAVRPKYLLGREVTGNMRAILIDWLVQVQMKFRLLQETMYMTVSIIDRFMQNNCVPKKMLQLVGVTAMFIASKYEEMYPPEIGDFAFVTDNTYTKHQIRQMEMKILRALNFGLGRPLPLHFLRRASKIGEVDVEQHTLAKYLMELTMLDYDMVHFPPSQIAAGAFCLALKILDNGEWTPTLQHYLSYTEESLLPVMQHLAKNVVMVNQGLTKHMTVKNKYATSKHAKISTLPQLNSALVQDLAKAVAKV
Chain of CDK4/CyclinD1 (h) (P11802 whole entry): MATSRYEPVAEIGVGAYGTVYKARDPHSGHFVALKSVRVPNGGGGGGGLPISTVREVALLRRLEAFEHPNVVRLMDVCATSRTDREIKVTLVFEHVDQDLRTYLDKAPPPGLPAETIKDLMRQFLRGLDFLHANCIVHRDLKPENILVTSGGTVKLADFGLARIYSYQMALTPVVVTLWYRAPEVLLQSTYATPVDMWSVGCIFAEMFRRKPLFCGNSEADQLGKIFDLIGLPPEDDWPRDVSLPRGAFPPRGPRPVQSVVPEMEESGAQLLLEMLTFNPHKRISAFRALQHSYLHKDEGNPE
Chain of CDK4/CyclinD1 (h) (P24385 whole entry partner): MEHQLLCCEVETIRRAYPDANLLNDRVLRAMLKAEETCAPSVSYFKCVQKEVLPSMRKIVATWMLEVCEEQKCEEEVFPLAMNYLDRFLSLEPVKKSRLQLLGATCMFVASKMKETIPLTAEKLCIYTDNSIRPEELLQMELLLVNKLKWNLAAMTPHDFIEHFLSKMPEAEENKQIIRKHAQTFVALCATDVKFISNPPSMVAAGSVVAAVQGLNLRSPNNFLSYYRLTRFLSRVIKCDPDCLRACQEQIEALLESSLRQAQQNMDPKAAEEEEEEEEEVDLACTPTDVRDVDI
Chain of PLK1 T210D (h) (P53350 whole entry T210D): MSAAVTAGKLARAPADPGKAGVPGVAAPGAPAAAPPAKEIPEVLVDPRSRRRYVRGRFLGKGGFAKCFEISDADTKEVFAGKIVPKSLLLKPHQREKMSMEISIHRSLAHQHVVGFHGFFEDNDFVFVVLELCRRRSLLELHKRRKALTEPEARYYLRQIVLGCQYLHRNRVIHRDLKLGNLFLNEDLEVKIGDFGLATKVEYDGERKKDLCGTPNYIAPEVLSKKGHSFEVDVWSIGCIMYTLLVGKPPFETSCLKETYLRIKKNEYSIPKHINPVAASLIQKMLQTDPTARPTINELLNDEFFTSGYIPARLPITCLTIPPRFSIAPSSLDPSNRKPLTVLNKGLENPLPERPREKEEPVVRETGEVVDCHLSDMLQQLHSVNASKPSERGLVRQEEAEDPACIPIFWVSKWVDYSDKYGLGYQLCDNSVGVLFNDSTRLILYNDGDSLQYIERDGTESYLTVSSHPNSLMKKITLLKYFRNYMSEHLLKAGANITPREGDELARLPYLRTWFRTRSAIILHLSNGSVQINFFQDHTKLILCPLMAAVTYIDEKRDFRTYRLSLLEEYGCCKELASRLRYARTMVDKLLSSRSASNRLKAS

SMILES | IC50 (U87-MG) [µM] | IC50 (H1299) [µM] | IC50 (HCT-116) [µM] | IC50 (PLK2 (h)) [µM] | IC50 (CDK4/CyclinD1 (h)) [µM] | IC50 (A2780) [µM] | IC50 (PLK1 T210D (h)) [µM] | IC50 (CDK1/CyclinB (h)) [µM] | IC50 (AuroraB (h)) [µM]
O=C1NCCCc2cc(ccn2)-c2ccnc(n2)Nc2ccc(N3CCOCC3)c(c2)CN2CCCC12 (stereo not drawn) [Compound 48] | > 10 | > 10 | > 10 | > 10 | > 10 | > 10 | > 10 | > 10 | > 10
COc1ccc2cc1CN(C)CCCNC(=O)C1CCN(CC1)Cc1cc(cc(NC(C)C)c1)Nc1nccc-2n1 [Compound 70] | 9.12 | > 10 | > 10 | > 10 | > 10 | > 10 | > 10 | > 10 | 6.03
COc1ccc2cc1CN(C)CCNC(=O)C1CCN(CC1)Cc1cc(cc(NC(C)C)c1)Nc1nccc-2n1 [Compound 75] | 5.13 | > 10 | 7.24 | > 10 | > 10 | > 10 | > 10 | > 10 | > 10
COc1ccc2cc1CN(C)CCCNC(=O)C1CCN(CC1)Cc1cc(Br)cc(c1)Nc1nccc-2n1 [Compound 76] | 7.24 | > 10 | > 10 | > 10 | > 10 | > 10 | > 10 | > 10 | 5.5
COc1ccc2cc1CN(C)CCNC(=O)C1CCN(CC1)Cc1cc(cc(N3CCOCC3)c1)Nc1nccc-2n1 [Compound 77] | > 10 | > 10 | > 10 | > 10 | > 10 | > 10 | > 10 | > 10 | > 10
COc1ccc2cc1CN(C)CCCNC(=O)C1CCN(CC1)Cc1cc(cc(N3CCOCC3)c1)Nc1nccc-2n1 [Compound 80] | > 10 | > 10 | > 10 | > 10 | > 10 | > 10 | > 10 | > 10 | > 10
COc1ccc2cc1CN(C)CCCNC(=O)C1CCN(CC1)Cc1cccc(c1)Nc1nccc-2n1 [Compound 81] | > 10 | > 10 | > 10 | > 10 | > 10 | > 10 | > 10 | > 10 | > 10
COc1ccc2cc1CN(C)CCNC(=O)C1CCN(CC1)Cc1cccc(c1)Nc1nccc-2n1 [Compound 83] | > 10 | > 10 | > 10 | > 10 | > 10 | > 10 | > 10 | > 10 | > 10
C[C@H]1NCc2cc(ccc2N2CCOCC2)Nc2nccc(n2)-c2ccc(cc2)OCCCNC1=O [Compound 86] | > 10 | > 10 | > 10 | > 10 | 0.49 | > 10 | > 10 | > 10 | 10.5
C[C@H]1NCc2cc(ccc2N2CCOCC2)Nc2nccc(n2)-c2cccc(c2)OCCCNC1=O [Compound 87] | 6.17 | > 10 | 3.8 | > 10 | 1.26 | 8.71 | > 10 | 7.08 | > 10
C[C@@H]1NCc2cc(ccc2N2CCOCC2)Nc2nccc(n2)-c2cccc(c2)OCCCNC1=O [Compound 88] | 3.55 | 8.13 | 1.62 | > 10 | 1.41 | 3.39 | > 10 | 4.79 | 6.46
O=C1NCCCOc2cccc(c2)-c2ccnc(n2)Nc2ccc(N3CCOCC3)c(c2)CN[C@H]1CO [Compound 89] | > 10 | > 10 | 4.37 | > 10 | 3.63 | 6.76 | > 10 | > 10 | > 10
O=C1NCCCOc2cccc(c2)-c2ccnc(n2)Nc2ccc(N3CCOCC3)c(c2)CN[C@H]1Cc1ccccc1 [Compound 91] | > 10 | > 10 | 6.17 | > 10 | > 10 | > 10 | > 10 | > 10 | > 10
O=C1NCCCOc2cccc(c2)-c2ccnc(n2)Nc2ccc(N3CCOCC3)c(c2)CN2CCC[C@@H]12 [Compound 96] | 4.17 | > 10 | 5.37 | > 10 | > 10 | 6.46 | > 10 | > 10 | > 10

Results, then the compound that gave them:

IC50 (U87-MG) [µM] | IC50 (H1299) [µM] | IC50 (HCT-116) [µM] | IC50 (PLK2 (h)) [µM] | IC50 (CDK4/CyclinD1 (h)) [µM] | IC50 (A2780) [µM] | IC50 (PLK1 T210D (h)) [µM] | IC50 (CDK1/CyclinB (h)) [µM] | IC50 (AuroraB (h)) [µM] | SMILES
2.57 | > 10 | 1.58 | > 10 | > 10 | 7.59 | > 10 | > 10 | 6.31 | CN1CCNC(=O)C2CCN(CC2)Cc2cc(Br)cc(c2)Nc2nccc(n2)-c2ccc(cc2)C1 [Compound 60]
5.62 | > 10 | 7.94 | > 10 | 7.41 | 6.31 | > 10 | > 10 | 8.32 | CC(C)Nc1cc2cc(c1)Nc1nccc(n1)-c1ccc(cc1)CN(C)CCNC(=O)C1CCN(CC1)C2 [Compound 61]
7.59 | > 10 | 8.13 | > 10 | > 10 | > 10 | > 10 | > 10 | > 10 | CN1CCNC(=O)C2CCN(CC2)Cc2cc(cc(N3CCOCC3)c2)Nc2nccc(n2)-c2ccc(cc2)C1 [Compound 68]
6.17 | > 10 | 3.39 | > 10 | > 10 | > 10 | > 10 | > 10 | > 10 | CN1CCCNC(=O)C2CCN(CC2)Cc2cc(cc(N3CCOCC3)c2)Nc2nccc(n2)-c2ccc(cc2)C1 [Compound 72]
7.08 | > 10 | > 10 | > 10 | > 10 | > 10 | > 10 | > 10 | > 10 | CN1CCCNC(=O)C2CCN(CC2)Cc2cccc(c2)Nc2nccc(n2)-c2ccc(cc2)C1 [Compound 78]
> 10 | > 10 | > 10 | > 10 | > 10 | > 10 | > 10 | > 10 | > 10 | CN1CCNC(=O)C2CCN(CC2)Cc2cccc(c2)Nc2nccc(n2)-c2ccc(cc2)C1 [Compound 82]
9.33 | > 10 | > 10 | > 10 | 7.24 | > 10 | > 10 | > 10 | 7.08 | O=C1NCCNc2cc(ccn2)-c2ccnc(n2)Nc2ccc(N3CCOCC3)c(c2)CN2CCC1CC2 [Compound 84]
0.178 | 0.832 | 0.309 | > 10 | 0.891 | 0.525 | > 10 | 1.02 | > 10 | O=C1NCCCOc2ccc(cc2)-c2ccnc(n2)Nc2ccc(N3CCOCC3)c(c2)CN2CCC1CC2 [Compound 92]
